Tests used:
[1] = test system: hEPO mRNA; experiment: hEPO expression and cytokine induction after intravenous administration to mice; assay type: in vivo; settings: mice, intravenous, 0.5 mpk
Experimental: The expression of hEPO and cytokine induction in mice intravenously administered a nanoparticle composition at a dose of 0.5 mpk were measured at 3, 6, and 24 hours. […] The expression of hEPO in mice intramuscularly administered a nanoparticle composition from Table 1B at a dose of 0.01 mpk were measured at 3, 6, and 24 hours.
Blood collection and analysis for hEPO. Blood was collected from mice or rats via the tail vein and hEPO concentrations were determined using a hEPO ELISA assay.

[2] = Pharmacokinetics of lipids in mice; assay type: in vivo; parameters: AUC / AUCall Mean: concentration or dose not given beside the values; settings: mouse
Experimental: FIGS. 45A and 45B are a pair of graphs illustrating pharmacokinetics of lipids of the disclosure in mice. Mice were administered compositions comprising Compound 50 (FIG. 45A) or Compound 301 (FIG. 45B), in nanoparticle compositions containing DSPC and PEG 1.

[3] = ALT and AST after intravenous administration to rat (Table 19A); assay type: in vivo
Experimental: Table 19A summarizes the hEPO expression, IP-10 induction, liver and spleen levels, and alanine aminotransferase (ALT) and aspartate aminotransferase (AST) measured upon intravenous administration of formulations including Compounds 48, 49, and 50 to rat at 0.2 and 2 mpk and hEPO mRNA. hEPO concentrations were measured 6 hours after administration, while cytokine induction and liver and spleen levels were measured 48 hours after administration. hEPO and IP-10 concentrations are presented in pg/ml, while liver levels are provided in ng/g. ALT and AST levels are presented in international units.

[4] = Nanoparticle characterisation: particle size, polydispersity index, zeta potential; assay type: physicochemical; settings: nanoparticle composition with hEPO mRNA (Table 30)
Source text: Nanoparticle compositions may be characterized by a variety of methods. For example, microscopy (e.g., transmission electron microscopy or scanning electron microscopy) may be used to examine the morphology and size distribution of a nanoparticle composition. Dynamic light scattering or potentiometry (e.g., potentiometric titrations) may be used to measure zeta potentials. Dynamic light scattering may also be utilized to determine particle sizes. Instruments such as the Zetasizer Nano ZS (Malvern Instruments Ltd, Malvern, Worcestershire, UK) may also be used to measure multiple characteristics of a nanoparticle composition, such as particle size, polydispersity index, and zeta potential.
The mean size of a nanoparticle composition may be between 10s of nm and 100s of nm, e.g., measured by dynamic light scattering (DLS). For example, the mean size may be from about 40 nm to about 150 nm, such as about 40 nm, 45 nm, 50 nm, 55 nm, 60 nm, 65 nm, 70 nm, 75 nm, 80 nm, 85 nm, 90 nm, 95 nm, 100 nm, 105 nm, 110 nm, 115 nm, 120 nm, 125 nm, 130 nm, 135 nm, 140 nm, 145 nm, or 150 nm. In some embodiments, the mean size of a nanoparticle composition may be from about 50 nm to about 100 nm, from about 50 nm to about 90 nm, from about 50 nm to about 80 nm, from about 50 nm to about 70 nm, from about 50 nm to about 60 nm, from about 60 nm to about 100 nm, from about 60 nm to about 90 nm, from about 60 nm to about 80 nm, from about 60 nm to about 70 nm, from about 70 nm to about 150 nm, from about 70 nm to about 130 nm, from about 70 nm to about 100 nm, from about 70 nm to about 90 nm, from about 70 nm to about 80 nm, from about 80 nm to about 150 nm, from about 80 nm to about 130 nm, from about 80 nm to about 100 nm, from about 80 nm to about 90 nm, from about 90 nm to about 150 nm, from about 90 nm to about 130 nm, or from about 90 nm to about 100 nm. In certain embodiments, the mean size of a nanoparticle composition may from about 70 nm to about 130 nm or be from about 70 nm to about 100 nm. In a particular embodiment, the mean size may be about 80 nm. In other embodiments, the mean size may be about 100 nm. In other embodiments, the mean size may be about 120 nm.
A nanoparticle composition may be relatively homogenous. A polydispersity index may be used to indicate the homogeneity of a nanoparticle composition, e.g., the particle size distribution of the nanoparticle compositions. A small (e.g., less than 0.3) polydispersity index generally indicates a narrow particle size distribution. A nanoparticle composition may have a polydispersity index from about 0 to about 0.25, such as 0.01, 0.02, 0.03, 0.04, 0.05, 0.06, 0.07, 0.08, 0.09, 0.10, 0.11, 0.12, 0.13, 0.14, 0.15, 0.16, 0.17, 0.18, 0.19, 0.20, 0.21, 0.22, 0.23, 0.24, or 0.25. In some embodiments, the polydispersity index of a nanoparticle composition may be from about 0.10 to about 0.20.
The zeta potential of a nanoparticle composition may be used to indicate the electrokinetic potential of the composition. For example, the zeta potential may describe the surface charge of a nanoparticle composition. Nanoparticle compositions with relatively low charges, positive or negative, are generally desirable, as more highly charged species may interact undesirably with cells, tissues, and other elements in the body. In some embodiments, the zeta potential of a nanoparticle composition may be from about −10 mV to about +20 mV, from about −10 mV to about +15 mV, from about −10 mV to about +10 mV, from about −10 mV to about +5 mV, from about −10 mV to about 0 mV, from about −10 mV to about −5 mV, from about −5 mV to about +20 mV, from about −5 mV to about +15 mV, from about −5 mV to about +10 mV, from about −5 mV to about +5 mV, from about −5 mV to about 0 mV, from about 0 mV to about +20 mV, from about 0 mV to about +15 mV, from about 0 mV to about +10 mV, from about 0 mV to about +5 mV, from about +5 mV to about +20 mV, from about +5 mV to about +15 mV, or from about +5 mV to about +10 mV.

## CCCCC/C=C\C/C=C\CCCCCCCCC(CCCCCCCC/C=C\C/C=C\CCCCC)OC(=O)CCCN(C)C [MC3, DLin-MC3-DMA, reference compound]
[1]; 3 h
  hEPO expression 3 h: 1.57e+06 pg/mL
[1]; 6 h
  Average hEPO concentration (pg/ml, 6 h): 1.83e+06 pg/mL
  Cytokine expression IL-6 (6 h): 19.85 pg/mL
  Cytokine expression IP-10 (6 h): 117.94 pg/mL
  hEPO expression 6 h: 1.83e+06 pg/mL
[1]; 6 h, Table 12
  Fold increase in hEPO concentration relative to MC3: 1
[1]; 24 h
  hEPO expression 24 h: 810000 pg/mL
[2]; Liver
  AUCall Mean: 1,410,000 hr * ng/mL
  Cmax Mean: 33,000 ng/mL
  Tmax: 24 h
[2]; Liver, * = 2 terminal datapoints estimation
  HL: 52.5* hr
[2]; Plasma
  AUCall Mean: 69,100 hr * ng/mL
  Cmax Mean: 28,900 ng/mL
  HL: 8.4 h
  Tmax: 0.5 h
[2]; Spleen
  AUCall Mean: 787,000 hr * ng/mL
  Cmax Mean: 21,200 ng/mL
  Tmax: 8 h
[2]; Spleen, * = 2 terminal datapoints estimation
  HL: 33.3* hr
[3]; 0.2 mpk
  ALT: 63.6 international units
  AST: 134.8 international units
[3]; 2 mpk
  ALT: 79.6 international units
  AST: 139.0 international units
[4]
  Osmolality: 318 mOsm/kg
  Zeta potential: −3.64 mV
  pH: 7.52

Source: US12263248B2, “Compounds and compositions for intracellular delivery of therapeutic agents” (ModernaTX, Inc., priority 2018, dated 2025)
